Consider 24 compounds from patent publication US20050014706A1, “Method of treating tuberculosis” (priority 2003, published 2005).

A word on the IC50: it is the midpoint of a concentration-inhibition curve.

Series [1] concerns M. tuberculosis H37Rv. The series can be described thus: MIC vs. M. tuberculosis H37Rv, microplate Alamar Blue assay (MABA). It is filed as cell-based.
The test system of series [2] is VERO cells. Put plainly: Cytotoxicity against VERO cells (MTS, 72 hours). As to conditions: for IC50: read-out: Vero IC50 (toxicity).
The subject of series [3] is J774.1 macrophage cell line. The series can be described thus: Cytotoxicity against J774.1 macrophage cell line. Type of series: cell-based, murine. As to conditions: J774 cells, read-out: J774 IC50 (toxicity).
Series [4] has as its system M. tuberculosis Erdman. Type of series: in vivo, BALB/c mice. As to conditions: […]; 100 and 200 mg/kg qd (RU60887 100 mg/kg only).
Where [5] appears, read: Table 1a, 11,12-carbamate derivatives, read-out: Anti-TB Activity MIC.
Where [6] appears, read: Table 2a, 11,12-diols, read-out: Anti-TB Activity MIC.
[7] abbreviates: Table 3, parallel-synthesis carbazate library products.

Values after ≈ are worked out from the molar mass of the structure shown. Where two headings read alike, the source gives them in different places. Bounds are passed on as bounds.

As for `CC[C@H]1OC(=O)[C@H](C)[C@@H](O[C@H]2CC(C)(OC)[C@@H](O)[C@H](C)O2)[C@H](C)[C@@H](O[C@@H]2O[C@H](C)C[C@H](N(C)C)[C@H]2O)[C@](C)(OC)C[C@@H](C)C(=O)[C@H](C)[C@H]2N(CCCCc3ccnc4ccccc34)C(=O)O[C@]12C` (stereo partly drawn) [RU66080], the MIC in series [1] (setting [5]) worked out at 0.44 µM (≈ 0.421 µg/mL). The IC50 in series [2] (Table 1a, Vero cells) was determined as 8.1 µM; in series [3] (Table 1a), 4.95 µM.

Consider `CC[C@H]1OC(=O)[C@H](C)C(=O)[C@H](C)[C@@H](O[C@@H]2O[C@H](C)C[C@H](N(C)C)[C@H]2O)[C@](C)(OC)C[C@@H](C)C(=NOC2CCCN(C/C=C/c3ccc(-c4ccccc4)cc3)C2)[C@H](C)[C@@H](O)[C@]1(C)O` (stereo partly drawn) [RU61804], for which the MIC in series [1] (setting [6]) was 0.5 µM (≈ 0.439 µg/mL). Moreover, the IC50 in series [2] (Table 2a, Vero cells) stood at 9.12 µM; in series [3] (Table 2a) it was 3.9 µM.

Take `CCCCCCCCCCN1CCCC(O/N=C2\[C@H](C)C[C@@](C)(OC)[C@H](O[C@@H]3O[C@H](C)C[C@H](N(C)C)[C@H]3O)[C@@H](C)C(=O)[C@@H](C)C(=O)O[C@H](CC)[C@@](C)(O)[C@H](O)[C@H]2C)C1` (stereo partly drawn) [RU60887]: the MIC in series [1] (Mycobacterium tuberculosis, H37RV, Table 2a, 11,12-diols, read-out: Anti-TB Activity MIC) came out at 0.125 µM (≈ 0.103 µg/mL); in series [1] (Mycobacterium tuberculosis, H37RV, read-out: minimum inhibitory concentration (MIC) against M. tuberculosis), 0.12 µM (≈ 0.0991 µg/mL). Further, the “MIC / activity vs. M. tuberculosis in words” value in series [1] (in vitro) was “very low”. Besides, the IC50 was determined as 27.6 µM in series [2] (Chlorocebus sabaeus, Vero) and 4.7 µM in series [3] (Mus musculus, J774.1, Table 2a). The “toxicity / cytotoxicity in words” value in series [2] (in vitro study) was “comparable to clarithromycin”. For the same compound, in series [4], the “activity against M. tuberculosis in the acute phase of infection” value is “less activity”.

Turning to `CC[C@H]1OC(=O)[C@H](C)[C@@H](O[C@H]2C[C@@](C)(OC)[C@@H](O)[C@H](C)O2)[C@H](C)[C@@H](O[C@@H]2O[C@H](C)C[C@H](N(C)C)[C@H]2O)[C@](C)(O)C[C@@H](C)/C(=N\OCOCc2ccccc2)[C@H](C)[C@@H](O)[C@]1(C)O` [RU29558], the MIC in series [1] (setting [6]) is reported as 7 µM (≈ 6.08 µg/mL). The IC50 in series [2] (Table 2a, Vero cells) came to 28.2 µM.

In the case of `CO[C@H]1/C=C/O[C@@]2(C)Oc3c(C)c(O)c4c(O)c(c(/C=N/N5CCN(C)CC5)c(O)c4c3C2=O)NC(=O)/C(C)=C\C=C\[C@H](C)[C@H](O)[C@@H](C)[C@@H](O)[C@@H](C)[C@H](OC(C)=O)[C@@H]1C` [RMP, Rifampin, reference compound], in series [1] (Mycobacterium tuberculosis, H37RV, Table 1a, 11,12-carbamate derivatives, read-out: Anti-TB Activity MIC), the MIC amounted to 0.076 µM (≈ 0.0625 µg/mL). Also, the IC50 in series [2] (Chlorocebus sabaeus, Vero) was determined as 46.7 µM; in series [3] (Mus musculus, J774.1, Table 1a), 32.7 µM.

In series [1] (setting [7]), `CC[C@H]1OC(=O)[C@H](C)[C@@H](O[C@H]2CC(C)(OC)[C@@H](O)[C@H](C)O2)[C@H](C)[C@@H](O[C@@H]2O[C@H](C)C[C@H](N(C)C)[C@H]2O)[C@](C)(OC)C[C@@H](C)C(=O)[C@H](C)[C@H]2N(NCC3=Cc4ccccc4OC3)C(=O)O[C@]12C` (stereo partly drawn) [G6′] registered an MIC of 11 µM (≈ 10.3 µg/mL).

As to `CC[C@H]1OC(=O)[C@H](C)[C@@H](O[C@H]2CC(C)(OC)[C@@H](O)[C@H](C)O2)[C@H](C)[C@@H](O[C@@H]2O[C@H](C)C[C@H](N(C)C)[C@H]2O)[C@](C)(OC)C[C@@H](C)C(=O)[C@H](C)[C@H]2N(NCc3nccn3C)C(=O)O[C@]12C` (stereo partly drawn) [B3′], in series [1] (setting [7]), the MIC is greater than 18 µM.

`CC[C@H]1OC(=O)[C@H](C)C(=O)[C@H](C)[C@@H](O[C@@H]2O[C@H](C)C[C@H](N(C)C)[C@H]2O)[C@](C)(OC)C[C@@H](C)C(=O)[C@H](C)[C@@H](O)[C@]1(C)O` [RU56006]: in series [1] (setting [6]), the MIC is reported as greater than 128 µM.

Take `CC[C@H]1OC(=O)[C@H](C)[C@@H](O[C@H]2CC(C)(OC)[C@@H](O)[C@H](C)O2)[C@H](C)[C@@H](O[C@@H]2O[C@H](C)C[C@H](N(C)C)[C@H]2O)[C@](C)(OC)C[C@@H](C)C(=O)[C@H](C)[C@H]2N(NCc3cncn3C)C(=O)O[C@]12C` (stereo partly drawn) [B5′]: the MIC in series [1] (setting [7]) is greater than 27 µM.

For the compound `CC[C@H]1OC(=O)[C@H](C)[C@@H](O[C@H]2CC(C)(OC)[C@@H](O)[C@H](C)O2)[C@H](C)[C@@H](O[C@@H]2O[C@H](C)C[C@H](N(C)C)[C@H]2O)[C@](C)(OC)C[C@@H](C)C(=O)[C@H](C)[C@H]2N(/N=C/c3cnc(-c4ccccc4)nc3C)C(=O)O[C@]12C` (stereo partly drawn) [E6′], the MIC in series [1] (setting [7]) was found to be 5 µM (≈ 4.84 µg/mL).

As for `CC[C@H]1OC(=O)[C@H](C)[C@@H](O[C@H]2CC(C)(OC)[C@@H](O)[C@H](C)O2)[C@H](C)[C@@H](O[C@@H]2O[C@H](C)C[C@H](N(C)C)[C@H]2O)[C@](C)(OC)C[C@@H](C)C(=O)[C@H](C)[C@H]2N(NC/C=C/c3cc(OC)c(O)c(OC)c3)C(=O)O[C@]12C` (stereo partly drawn) [A6′], the MIC in series [1] (setting [7]) turned out to be 10.2 µM (≈ 10 µg/mL).

The compound `CC[C@H]1OC(=O)[C@H](C)[C@@H](O[C@H]2CC(C)(OC)[C@@H](O)[C@H](C)O2)[C@H](C)[C@@H](O[C@@H]2O[C@H](C)C[C@H](N(C)C)[C@H]2O)[C@](C)(OC)C[C@@H](C)C(=O)[C@H](C)[C@H]2N(NCc3sccc3Oc3ccccc3)C(=O)O[C@]12C` (stereo partly drawn) [G4′] came in with an MIC in series [1] (setting [7]) of 13 µM (≈ 12.7 µg/mL).

For the compound `CCC1OC(=O)C(C)C(OC2CC(C)(OC)C(O)C(C)O2)C(C)C(OC2OC(C)CC(N(C)C)C2O)C(C)(OC)CC(C)C(=O)C(C)C2N(N=CC3=C(Cl)c4cc(F)ccc4OC3)C(=O)OC12C` (stereo not drawn) [H9′], the MIC result in series [1] (setting [7]) was “?3 μM”.

For “cethromycin [ABT773, reference compound]”, the “MIC against M. tuberculosis” value in series [1] amounted to 3 µM. Moreover, the MIC in series [1] (setting [5]) came to 3 µM. Also, the IC50 in series [2] (Table 1a, Vero cells) is greater than 105 µM.

Regarding `CC[C@H]1OC(=O)[C@H](C)[C@@H](O[C@H]2CC(C)(OC)[C@@H](O)[C@H](C)O2)[C@H](C)[C@@H](O[C@@H]2O[C@H](C)C[C@H](N(C)C)[C@H]2O)[C@](C)(OC)C[C@@H](C)C(=O)[C@H](C)[C@H]2N(NCc3cc(Br)cs3)C(=O)O[C@]12C` (stereo partly drawn) [F11′], the MIC in series [1] (setting [7]) turned out to be 12.7 µM (≈ 12.2 µg/mL).

`CC[C@H]1OC(=O)[C@H](C)[C@@H](O[C@H]2CC(C)(OC)[C@@H](O)[C@H](C)O2)[C@H](C)[C@@H](O[C@@H]2O[C@H](C)C[C@H](N(C)C)[C@H]2O)[C@](C)(OC)C[C@@H](C)C(=O)[C@H](C)[C@H]2N(NCc3ccc([N+](=O)[O-])o3)C(=O)O[C@]12C` (stereo partly drawn) [A8′]: the MIC in series [1] (setting [7]) was greater than 9 µM.

`CC[C@H]1OC(=O)[C@H](C)[C@@H](O[C@H]2CC(C)(OC)[C@@H](O)[C@H](C)O2)[C@H](C)[C@@H](O[C@@H]2O[C@H](C)C[C@H](N(C)C)[C@H]2O)[C@](C)(OC)C[C@@H](C)C(=O)[C@H](C)[C@H]2N(NCc3ccc4c(c3)nnn4C)C(=O)O[C@]12C` (stereo partly drawn) [H7′] returned an MIC in series [1] (setting [7]) greater than 22 µM.

In series [1] (setting [7]), `CC[C@H]1OC(=O)[C@H](C)[C@@H](O[C@H]2CC(C)(OC)[C@@H](O)[C@H](C)O2)[C@H](C)[C@@H](O[C@@H]2O[C@H](C)C[C@H](N(C)C)[C@H]2O)[C@](C)(OC)C[C@@H](C)C(=O)[C@H](C)[C@H]2N(NCC3CSN=N3)C(=O)O[C@]12C` (stereo partly drawn) [G10′] registered an MIC greater than 16 µM.

In turn, `CC[C@H]1OC(=O)[C@H](C)[C@@H](O[C@H]2CC(C)(OC)[C@@H](O)[C@H](C)O2)[C@H](C)[C@@H](O[C@@H]2O[C@H](C)C[C@H](N(C)C)[C@H]2O)[C@](C)(OC)C[C@@H](C)C(=O)[C@H](C)[C@H]2N(NCc3cccnc3NC(=O)C(C)(C)C)C(=O)O[C@]12C` (stereo partly drawn) [E4′] had an MIC in series [1] (setting [7]) greater than 27 µM.

`CC[C@H]1OC(=O)[C@H](C)[C@@H](O[C@H]2CC(C)(OC)[C@@H](O)[C@H](C)O2)[C@H](C)[C@@H](O[C@@H]2O[C@H](C)C[C@H](N(C)C)[C@H]2O)[C@](C)(OC)C[C@@H](C)C(=O)[C@H](C)[C@H]2N(NC/C=C/c3ccccc3)C(=O)O[C@]12C` (stereo partly drawn) [A4′] registered an MIC in series [1] (setting [7]) of 7 µM (≈ 6.33 µg/mL).

`CC[C@H]1OC(=O)[C@H](C)[C@@H](O[C@H]2CC(C)(OC)[C@@H](O)[C@H](C)O2)[C@H](C)[C@@H](O[C@@H]2O[C@H](C)C[C@H](N(C)C)[C@H]2O)[C@](C)(OC)C[C@@H](C)C(=O)[C@H](C)[C@H]2N(NCc3[nH]ncc3Br)C(=O)O[C@]12C` (stereo partly drawn) [D1′] displayed an MIC in series [1] (setting [7]) of 23 µM (≈ 21.8 µg/mL).

Turning to `CC[C@H]1OC(=O)[C@H](C)[C@@H](O[C@H]2CC(C)(OC)[C@@H](O)[C@H](C)O2)[C@H](C)[C@@H](O[C@@H]2O[C@H](C)C[C@H](N(C)C)[C@H]2O)[C@](C)(OC)C[C@@H](C)C(=O)[C@H](C)[C@H]2N(NCc3cccc4nsnc34)C(=O)O[C@]12C` (stereo partly drawn) [H3′], in series [1] (setting [7]), the MIC is greater than 22 µM.

For the compound `CC[C@H]1OC(=O)[C@H](C)[C@@H](O[C@H]2CC(C)(OC)[C@@H](O)[C@H](C)O2)[C@H](C)[C@@H](O[C@@H]2O[C@H](C)C[C@H](N(C)C)[C@H]2O)[C@](C)(OC)C[C@@H](C)C(=O)[C@H](C)[C@H]2N(NCc3c(-c4ccccc4)noc3C)C(=O)O[C@]12C` (stereo partly drawn) [C10′], the MIC in series [1] (setting [7]) was 12 µM (≈ 11.5 µg/mL).

On to `CC[C@H]1OC(=O)[C@H](C)[C@@H](O[C@H]2CC(C)(OC)[C@@H](O)[C@H](C)O2)[C@H](C)[C@@H](O[C@@H]2O[C@H](C)C[C@H](N(C)C)[C@H]2O)[C@](C)(OC)C[C@@H](C)C(=O)[C@H](C)[C@H]2N(/N=C/c3cc(-c4cccs4)on3)C(=O)O[C@]12C` (stereo partly drawn) [C8′], for which the MIC result in series [1] (setting [7]) was “?9 μM”.
